Results taken from US9315811B2, “Methods for modulating kallikrein (KLKB1) expression” (Ionis Pharmaceuticals, Inc., priority 2011, dated 2016).
Oligonucleotides are written 5' to 3', each unit as a sugar letter and its base; * is a phosphorothioate linkage, no mark a phosphodiester; rarer units and linkages stand in square brackets, end groups in braces. Plain capitals give the bases only. e = 2'-O-(2-methoxyethyl) (MOE); [5mC] = 5-methylcytosine; d = 2'-deoxy (DNA)

Assays:
Kallikrein mRNA [1] = assay: Liver RT-PCR analysis of kallikrein mRNA (Example 9); assay type: in vivo, mouse; settings: for Percent inhibition of kallikrein mRNA expression compared to the untreated PBS control: all groups ISIS 461756 12.5 mg/kg twice a week, ASO 40 mg/kg or PBS s.c. twice a week 3 weeks
Description: (§1) One group of 8 mice was treated with 40 mg/kg ISIS 482584 administered subcutaneously twice a week for 3 weeks (weekly dose of 80 mg/kg). A second group of 8 mice was treated with 40 mg/kg of the control oligonucleotide, ISIS 141923, administered subcutaneously twice a week for 3 weeks (weekly dose of 80 mg/kg). A third group of 8 mice was treated with PBS administered subcutaneously twice a week for 3 weeks. On day 14, all the groups were treated with 12.5 mg/kg ISIS 461756 administered subcutaneously twice a week for 3 weeks (weekly dose of 25 mg/kg). A control group of mice was treated with PBS administered subcutaneously twice a week for 3 weeks but was not administered ISIS 461756.
(§2) At the end of the treatment period, all the groups were injected with 30 mg/kg of Evans Blue solution into the tail vein. The mice were sacrificed 30 min after the Evans Blue solution administration and colons, feet, ears, and intestines were harvested. The liver was also harvested for RNA analysis.
RNA was isolated from the liver for RT-PCR analysis of C1-INH and kallikrein mRNAs. The primer probe set for C1-INH is RTS3218 (forward sequence […], designated herein as SEQ ID NO: 24; reverse sequence […], designated herein as SEQ ID NO: 25; probe sequence […], designated herein as SEQ ID NO: 26). The primer probe set for kallikrein is RTS3287 (forward sequence […], designated herein as SEQ ID NO: 27; reverse sequence […], designated herein as SEQ ID NO: 28; probe sequence […], designated herein as SEQ ID NO: 29). The results are presented in Table 20 as percent inhibition compared to the PBS control not treated with ISIS 461756.

C1-INH mRNA = assay: Liver RT-PCR analysis of C1-INH mRNA (Example 9); assay type: in vivo, mouse
Description: as §1, §2
RNA was isolated from the liver for RT-PCR analysis of C1-INH and kallikrein mRNAs. The primer probe set for C1-INH is RTS3218 (forward sequence […], designated herein as SEQ ID NO: 24; reverse sequence […], designated herein as SEQ ID NO: 25; probe sequence […], designated herein as SEQ ID NO: 26). […]

mouse kallikrein mRNA = assay: Antisense inhibition of murine kallikrein mRNA in mouse primary hepatocytes (Example 1); assay type: cell-based
Description: Antisense oligonucleotides targeting a murine kallikrein nucleic acid were tested for their effects on kallikrein mRNA in vitro. Cultured mouse primary hepatocytes at a density of 10,000 cells per well were transfected using Cytofectin reagent with 12.5 nM, 25 nM, 50 nM, 100 nM, or 200 nM of antisense oligonucleotide. After a treatment period of approximately 24 hours, RNA was isolated from the cells and mouse kallikrein mRNA levels were measured by quantitative real-time PCR using the murine primer probe set RTS3313 (forward sequence […], designated herein as SEQ ID NO: 21; reverse sequence […], designated herein as SEQ ID NO: 22; probe sequence […], designated herein as SEQ ID NO: 23). Kallikrein mRNA levels were adjusted according to total RNA content, as measured by RIBOGREEN.
The chimeric antisense oligonucleotides were designed as 5-10-5 MOE gapmers. The gapmers are 20 nucleotides in length, wherein the central gap segment is comprised of ten 2′-deoxynucleosides and is flanked on both sides (in the 5′ and 3′ directions) by wings comprising five nucleosides each. Each nucleoside in the 5′ wing segment and each nucleoside in the 3′ wing segment has a 2′-MOE modification. The internucleoside linkages throughout each gapmer are phosphorothioate (P═S) linkages. All cytosine residues throughout each gapmer are 5-methylcytosines.
ISIS 482584 ([…]; incorporated herein as SEQ ID NO: 40), which was one of the antisense oligonucleotides tested in the assay, is targeted to SEQ ID NO: 11 (GENBANK Accession No. NM_008455.2) with a target start site of 1586 and a target stop site of 1605.

Kallikrein mRNA [2] = assay: Kallikrein mRNA and protein expression in mice after subcutaneous ASO (Example 1); assay type: in vivo, mouse; settings: 3 weeks
Description: C57BL/6J-Tyrc-2J mice were treated with 2.5 mg/kg, 5.0 mg.kg, 10.0 mg/kg, 20.0 mg/kg, 40.0 mg/kg, or 80.0 mg/kg (corresponding to 5.0 mg/kg, 10.0 mg/kg, 20.0 mg/kg, 40 mg/kg, 80 mg/kg, or 160 mg/kg per week) of ISIS 482584 administered subcutaneously twice a week for 3 weeks. […] Kallikrein mRNA was reduced by greater than 90% inhibition at a dose of 160 mg/kg per week.

mice = assay: Evans Blue vascular permeability induced by ISIS 461756 (Example 9); settings: mouse, in vivo
Description: Vascular permeability induced by ISIS 461756, an antisense oligonucleotide which targets murine C1 inhibitor mRNA, increases vascular permeability in mice and replicates the pathology of hereditary angioedema. The effect of ISIS 482584 on this model was evaluated.
as §1
At the end of the treatment period, all the groups were injected with 30 mg/kg of Evans Blue solution into the tail vein. […]
The harvested tissues from the feet, colon, and intestines were placed in formamide solution overnight to leach out the Evans Blue dye. […] The color intensity of the dye-infused formamide solution was then measured at OD600nm. […]

[3] = system: high molecular weight kininogen (HMWK); assay: Western blot quantification of HMWK and HMWK cleavage product by densitometer (Example 5); assay type: in vivo, mouse; settings: vs PBS control, dose-dependent
Description: All the groups were then injected with 30 mg/kg of Evans Blue solution in the tail vein. The mice were sacrificed 30 min after the Evans Blue solution administration and colons, feet, and ears were harvested and examined for permeability defects. Blood samples were taken through cardiac puncture.
Treatment with kallikrein antisense oligonucleotide results in stabilization of HMWK. Thus, vascular permeability is reduced in ISIS 482584-treated groups in a dose-dependent manner. […] Thus, reduced HMWK is caused by kallikrein cleavage of HMWK into cleavage products (including bradykinin and HKa). Data are presented in Intensity Units as measured by densitometer.

Row | Substance | Percent inhibition of kallikrein mRNA expression compared to the untreated PBS control (Kallikrein mRNA [1]) [%] | C1-INH mRNA expression (C1-INH mRNA) | % inhibition (mouse kallikrein mRNA; 12.5 nM) [%] | % inhibition (mouse kallikrein mRNA; 25.0 nM) [%] | % inhibition (mouse kallikrein mRNA; 50.0 nM) [%] | % inhibition (mouse kallikrein mRNA; 100.0 nM) [%] | % inhibition (mouse kallikrein mRNA; 200.0 nM) [%] | Kallikrein mRNA inhibition (Kallikrein mRNA [2]; 160 mg/kg per week s.c.) | Kallikrein mRNA and protein expression (Kallikrein mRNA [2]; 5.0-160 mg/kg per week s.c.) | vascular permeability induced by ISIS 461756 (mice) | kallikrein expression (Kallikrein mRNA [1]) | HMWK levels [3]
1 | ISIS 141923: control oligonucleotide, a 5-10-5 MOE gapmer with no known murine target; CCTTCCCTGAAGGTTCCTCC (SEQ ID NO: 42) (sugars from the 5' end e5 d10 e5, backbone and methylation of C not given here) [reference compound] | 0 | – | – | – | – | – | – | – | – | – | – | –
2 | ISIS 461756: 5-10-5 MOE gapmer antisense oligonucleotide which targets murine C1 inhibitor mRNA; AAAGTGGTTGATACCCTGGG (SEQ ID NO: 41) (sugars from the 5' end e5 d10 e5, backbone and methylation of C not given here) [reference compound] | 0 | significantly reduced | – | – | – | – | – | – | – | – | – | –
3 | ISIS 482584: 5-10-5 MOE gapmer antisense oligonucleotide targeting murine kallikrein; GGCATATTGGTTTTTGGAAT (SEQ ID NO: 40) (antisense eG*eG*e[5mC]*eA*eT*dA*dT*dT*dG*dG*dT*dT*dT*dT*dT*eG*eG*eA*eA*eT) | 78 | – | 0 | 36 | 17 | 60 | 83 | greater than 90% | reduced in a dose dependent manner | prevented vascular permeability | significantly reduced | higher levels of HMWK
